One assay deals with CAM vascularization. The conditions noted are these: in vivo; cited from earlier work.
For assay [1], the system named is Human peripheral blood mononuclear cells (PBMNC). The assay is described as follows: In vitro formation of colonies from human peripheral blood mononuclear cells (EPC differentiation assay). It counts as cell-based. The following applies: medium with bFGF and VEGF, 6 days culture after addition. On the procedure: Human peripheral blood mononuclear cells (PBMNC) were purified over Ficoll gradient and seeded onto non-treated plastic dish for 24 hr. Non. adherent cells were, transferred to a gelatin coated 48 well dish in medium containing basic fibroblast growth factor (BFGF) and VEGF. Angiostatin and endostatin were added to the medium 24 hours later and cells were cultured for additional 6 days. At the end of the experiment the colonies were fixed with ethanol, stained with methyl-methylene blue and counted (FIGS. 1A-C). […] There was no difference in the effects of angiostatin between the two concentrations used. […] Taken together, it appears that angiostatin and endostatin block the differentiation of EC from their circulating progenitors.

The subject of assay [2] is EPC. The assay is described as follows: VEGF-induced mobilization of EPC in mice (PBMNC colonies from peripheral blood). It counts as in vivo. On the procedure: PBMNC from 1 ml of peripheral mouse blood were plated in medium containing bFGF and VEGF (FIG. 2A). […] Similar results were obtained with peripheral blood from mice, which were injected with microencapsulated cells producing endostatin (approximately 0.5×10^6 cells per mice) (Joki et al., 2001) (FIG. 2D). In order to elevate the number of EPC in the blood, the mice received injection of 0.5×10^6 cells producing VEGF, that were micro-encapsulated similar to the endostatin producing cells (FIGS. 2B-C).
PBMNC from VEGF injected mice were further analyzed by immunostaining in order to confirm their identity. Blood-derived cells were stained positively for VEGF-R2 (Flk-1), CD-31, BS-1 (a lectin specifically expressed on mouse EC) and for von-Wilerband factor (F.VIII). Only a few cells were stained positively for CD-14, a marker for macrophages. […] Furthermore, this in vivo effect of endostatin can be seen only if the starting number of EPC in the blood is high as a result of the VEGF treatment.

Assay [3] concerns EPC. The assay is described as follows: Tumor-induced mobilization of EPC in SCID mice bearing HS-VF tumors. It counts as in vivo. The conditions noted are these: 7 days. On the procedure:
Many tumors secrete high levels of VEGF that can promote differentiation and mobilization of EPC. To test the effects of endostatin on tumor-induced mobilization of EPC, SCID mice (5 per group) were first injected subcutaneously with human pancreatic tumor cells (HS-VF cell, 2×10^6 cells/mouse) overexpressing VEGF. Eight days later half of the mice were implanted with “Alzet” osmotic pumps releasing murine endostatin (8-12 mg/kg/day) and the other half with pumps releasing saline. SCID mice that were not injected with tumor cells or pumps (normal SCID mice) served as a control to measure the number of EPC. After seven days, mice were sacrificed and blood samples were collected.
PBMNC were purified over “Ficoll” gradient and cells corresponding to 0.5 ml of blood were placed in a “Cytospin” tube. The cells were loaded onto glass slides, fixed and immunostained with MECA-32 antibodies, that specifically detect murine EC. The staining was developed with FITC-labeled (green) secondary antibodies and cell nuclei were stained with DAPI (blue). The proportion of MECA-32 positive cells from total PBMNC was calculated and shown in the graph of FIG. 4A.
Control mice had 0.29% MECA-32 positive cells in the PBMNC preparation. […]

The subject of assay [4] is EPC. The assay is described as follows: EPC in peripheral blood of cancer patients undergoing endostatin treatment (P1H12-positive cells). The conditions noted are these: for percentage of EPC: about 240 mg/m^3 daily. It counts as in vivo, human. On the procedure:
Recombinant human Endostatin (rhEndostatin, Endostatin™ EntreMed, Inc, Rockville, Md.) is under investigation in clinical Phase I trials in patients with advanced, refractory cancers. Twenty eight patients, age ranging from 28 to 72 years old with various types of cancer such as breast, colorectal and soft tissue sarcoma, participated in a phase I clinical trial at the Dana Farber Cancer Institute in Boston. We obtained blood samples from 7 patients that were treated with endostatin. The response of EPC to rhEndostatin differed between patients in accordance with differing clinical courses. The first group consisted of 4 patients with slowly progressive, stable or decreasing cancers that were followed with samples for 130-250 days (FIG. 6A). The second group consisted of patients with faster progressing cancer unaffected by rhEndostatin administration. This group was followed during 30 days of endostatin treatment (FIG. 6B). PBMNC were purified from the blood over “Ficoll” gradient and cells corresponding to 0.5 or 1 ml of blood were placed in a “Cytospin” tube. The cells were loaded onto glass slides, fixed and immuno-stained with FITC-conjugated P1H12 antibodies. Cell nuclei were stained with DAPI. The number of P1H12-positive cells was calculated as percentage of total PBMNC. EPC percentage varied among patients and was between 1.8-3.5%. […] Patients from the first group were initially administered with daily intravenous injections of 60 mg/m^3 endostatin. […] The administration of endostatin was later changed to continuous infusion (60 mg/m^3/day).
The second group of patients were at the beginning of endostatin treatment (daily IVB injections of about to 240 mg/m^3). The initial amount of EPC in this group varied between 0.4-1.6%. […] In these patients only 2-3 measurements of EPC were available because of rapid disease progression. […] On the other hand, minor response or stable disease progression upon endostatin administration was associated with reduction in the number EPC in peripheral blood, whereas an increase in EPC was associated with rapid disease progression.

With `CO[C@@H]1[C@H](OC(=O)NC(=O)CCl)CC[C@]2(CO2)[C@H]1[C@@]1(C)O[C@@H]1CC=C(C)C` [TNP-470, reference compound], the CAM vascularization entry in the assay on CAM vascularization is listed as “greatly inhibit”.
In the case of endostatin, the “formation of PBMNC colonies” value in assay [1] (2 μg/ml) was “the number of colonies grew but the colonies were small and contained small round cells”; in assay [1] (10 μg/ml) it was “significantly lower than the control experiment”. Also, in the assay on EPC [2] (mice injected with microencapsulated cells producing endostatin only (approx. 0.5×10^6 cells per mouse), 7 days in culture), the “colonies from PBMNC of 1 ml peripheral mouse blood” value is listed as “no viable cell-containing colonies could be detected”. In the assay on EPC [2] (mice received VEGF producing cells together with endostatin producing cells (0.5×10^6 alginate encapsulated cells of each)), the “colonies from PBMNC of peripheral mouse blood” value was “only a few, small and round cell-containing colonies”. In the assay with EPC [3] (Alzet pumps releasing murine endostatin 8-12 mg/kg/day, saline pumps approx. 2.5%, control mice 0.29%), the “proportion of MECA-32 positive cells from total PBMNC” value is recorded as 0.67%. Further, the “gated Flk-1 positive cells in the peripheral blood (FACS)” value with EPC [3] (pumps releasing murine endostatin 8-12 mg/kg/day, saline 0.625+/−0.19%, normal mice 0.22+/−0.04%) is listed as 0.305+/−0.05%. The “number of EPC (P1H12-positive cells, percentage of total PBMNC)” value in the assay on EPC [4] (one patient of the first group, continuous infusion 60 mg/m^3/day, 130 days) is reported as “not increased”; in the assay on EPC [4] (patients #1, #2 and #3, continuous infusion 60 mg/m^3/day), “further lowered”; in the assay on EPC [4] (patients #2 and #3, slowly progressing cancer, daily intravenous injections of 60 mg/m^3), “gradually decreased”. The “percentage of EPC” value with EPC [4] (patient 13, faster progressing cancer, increased from 0.4% during 15 days of administration) was 3.8%; in the assay with EPC [4] (patient #11, faster progressing cancer, increased from 1.6% during 30 days of administration), 5.3%. In addition, in the assay on EPC [4] (patient #12, faster progressing cancer, daily IVB injections of about 240 mg/m^3, first 15 days), the EPC percentage result is “did not change significantly”. Moreover, the CAM vascularization entry in the assay with CAM vascularization is given as “greatly inhibit”.
On to angiostatin, for which the “formation of PBMNC colonies” value in assay [1] (2 μg/ml) and in assay [1] (10 μg/ml) was “completely blocked” each time. In addition, in the assay with CAM vascularization, the CAM vascularization result was “greatly inhibit”.
For the compound “vascular endothelial growth factor [VEGF, reference compound]”, in the assay on EPC [2] (mice injected with 0.5×10^6 microencapsulated cells producing VEGF), the “colonies from PBMNC of peripheral mouse blood” value is “Large number of colonies”.

The values are drawn from patent US7666393B2, “Methods for assessing antiangiogenic agents” (Children's Medical Center Corporation, priority 2001, dated 2010).
